This passage reports IC50 results from ChEMBL document CHEMBL2331239, “Inhibiting NF-κB-inducing kinase (NIK): discovery, structure-based design, synthesis, structure-activity relationship, and co-crystal structures” (Bioorg Med Chem Lett, 2013).

In general, IC50 refers to the concentration needed to halve the response being measured.

The target of one experiment is T1, Mitogen-activated protein kinase kinase kinase 14 (Homo sapiens, UniProt Q99558). Kind of experiment: Inhibition of NIK (unknown origin) autophosphorylation after 1 hr by chemiluminescent assay.
T1 sequence (Q99558 whole entry): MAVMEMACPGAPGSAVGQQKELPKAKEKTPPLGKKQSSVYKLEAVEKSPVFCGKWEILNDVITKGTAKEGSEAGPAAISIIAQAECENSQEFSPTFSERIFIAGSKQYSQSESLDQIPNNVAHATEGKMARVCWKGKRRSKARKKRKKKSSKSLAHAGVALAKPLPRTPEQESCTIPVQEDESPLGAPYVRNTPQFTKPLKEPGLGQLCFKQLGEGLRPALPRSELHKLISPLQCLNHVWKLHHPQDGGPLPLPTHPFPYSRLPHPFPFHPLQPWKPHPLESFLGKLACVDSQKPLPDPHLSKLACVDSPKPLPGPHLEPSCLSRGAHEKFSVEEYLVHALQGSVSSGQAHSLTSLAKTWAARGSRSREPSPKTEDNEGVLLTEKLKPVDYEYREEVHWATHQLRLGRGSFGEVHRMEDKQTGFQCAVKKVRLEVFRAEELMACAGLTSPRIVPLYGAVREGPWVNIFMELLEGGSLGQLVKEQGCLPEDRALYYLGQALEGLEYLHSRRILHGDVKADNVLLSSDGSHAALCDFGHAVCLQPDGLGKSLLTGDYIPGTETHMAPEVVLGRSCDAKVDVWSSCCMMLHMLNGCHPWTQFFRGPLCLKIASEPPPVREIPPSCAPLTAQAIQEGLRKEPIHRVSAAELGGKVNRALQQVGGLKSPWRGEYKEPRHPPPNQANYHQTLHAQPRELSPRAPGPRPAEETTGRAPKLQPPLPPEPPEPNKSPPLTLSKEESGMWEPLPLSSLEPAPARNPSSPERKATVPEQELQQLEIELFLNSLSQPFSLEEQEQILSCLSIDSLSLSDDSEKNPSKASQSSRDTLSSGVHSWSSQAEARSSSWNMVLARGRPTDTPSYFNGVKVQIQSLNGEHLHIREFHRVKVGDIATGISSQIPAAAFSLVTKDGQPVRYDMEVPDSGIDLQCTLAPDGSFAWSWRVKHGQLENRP
Regarding `Cc1nc2ccccn2c1-c1ccnc(N)n1`, the concentration for half-maximal inhibition (IC50) was more than 80 µM.

With `Cc1ccn2c(-c3ccnc(N)n3)c(C)nc2c1`, the IC50 was more than 80 µM.

For `Cc1nc2c(C)cccn2c1-c1ccnc(N)n1`, the IC50 is more than 80 µM.

`Cc1cnc(N)nc1-c1c[nH]c2ccc(Cl)cc12` returned an IC50 of 0.11 µM.

Regarding `Cc1cnc(N)nc1-c1c(C)[nH]c2ccc(Cl)cc12`, the IC50 came out at 30 µM.

`Nc1ncc2c(n1)-c1c([nH]c3ccc(Cl)cc13)CCC2` showed an IC50 of 0.07 µM.

Take `Nc1ncc2c(n1)-c1c[nH]c3ccc(Cl)c(c13)CC2`: the IC50 was found to be 2.6 µM.

Regarding `Nc1ncc2c(n1)-c1c([nH]c3ccc(Cl)cc13)CC2`, it took 1.2 µM to reach half-maximal inhibition (IC50).

The compound `Nc1ncc2c(n1)-c1c([nH]c3ccc(Cl)cc13)CCCC2` had an IC50 of 21 µM.

For the compound `Nc1ncc2c(n1)-c1c([nH]c3ccc(Br)cc13)CCC2`, the IC50 stood at 0.1 µM.

Regarding `Nc1ncc2c(n1)-c1c([nH]c3ccc(C#Cc4cccnc4)cc13)CCC2`, half-maximal inhibition (IC50) was put at 30 µM.

`Cn1cncc1C#Cc1ccc2[nH]c3c(c2c1)-c1nc(N)ncc1CCC3` registered an IC50 of 30 µM.

For `CC(O)c1ccc(-c2ccc3[nH]c4c(c3c2)-c2nc(N)ncc2CCC4)cc1` (stereo not drawn), the IC50 was found to be 24 µM.

`CC(O)c1ccc(-c2ccc3[nH]c4c(c3c2)-c2nc(N)ncc2CCC4)s1` (stereo not drawn): the midpoint of inhibition, the IC50, lay at 15 µM.

Take `COCCOc1cnc(N)nc1-c1c[nH]c2ccc(C#CC(C)(C)O)cc12`: the half-inhibitory concentration (IC50) is 0.04 µM.

As to `Cc1nc2ccc(Cl)cn2c1-c1ccnc(N)n1`, the IC50 is 0.6 µM.

Compound `Nc1nccc(-c2cnc3ccc(Br)cn23)n1` had an IC50 of 0.19 µM.

`Cc1nc2ccc(Cl)cc2n1-c1ccnc(N)n1`: it took 4 µM to reach half-maximal inhibition (IC50).

In the case of `Nc1nccc(-n2cnc3ccc(Cl)cc32)n1`, the half-maximal inhibitory concentration (IC50) was determined as 0.31 µM.

`Cc1[nH]c2ccc(Cl)cc2c1-c1ccnc(N)n1` showed a 50% inhibitory concentration (IC50) of 0.3 µM.

`Nc1nccc(-c2c[nH]c3ccc(Cl)cc23)n1` displayed an IC50 of 0.15 µM.

Take `Nc1nccc(-n2ccc3ccc(Cl)cc32)n1`: the IC50 was 0.076 µM.

Compound `Nc1nccc(-n2ccc3ccc(Br)cc32)n1` showed an IC50 of 0.089 µM.

Compound `N#Cc1ccc2ccn(-c3ccnc(N)n3)c2c1` yielded an IC50 of 0.063 µM.

As to `Nc1nccc(N2CCc3ccc(Br)cc32)n1`, the IC50 is 0.55 µM.

With `Nc1nccc(-c2c[nH]c3ccc(F)cc23)n1`, the half-inhibitory concentration (IC50) is 1.8 µM.

Compound `COc1ccc2[nH]cc(-c3ccnc(N)n3)c2c1` came in with an IC50 of 24 µM.

`N#Cc1ccc2[nH]cc(-c3ccnc(N)n3)c2c1`: half-maximal inhibition (IC50) required 0.063 µM.

The compound `Cc1ccc2nc(C)c(-c3ccnc(N)n3)n2c1` returned an IC50 of 42 µM.

Compound `Nc1nccc(-c2c[nH]c3ccccc23)n1` displayed an IC50 of 41 µM.

A further experiment has as its target T1, Mitogen-activated protein kinase kinase kinase 14. Kind of experiment: Inhibition of NIK in human HT-29 cells assessed as LTalpha/beta2-induced p100 processing to NFkappaB2 preincubated for 30 mins before LTalpha/beta2 stimulation measured after 5 hrs. The experiment is classed as cell-based.
For `Nc1ncc2c(n1)-c1c([nH]c3ccc(Br)cc13)CCC2`, the IC50 turned out to be 4.6 µM.

On to `COCCOc1cnc(N)nc1-c1c[nH]c2ccc(C#CC(C)(C)O)cc12`, for which the IC50 was 0.02 µM.

As to `Cc1nc2ccc(Cl)cn2c1-c1ccnc(N)n1`, the IC50 amounted to 16 µM.
